{"source": "patent US12653190B2", "about": "“Heteroaryl-triazole compounds as pesticides” (Bayer Aktiengesellschaft, priority 2020, dated 2026)", "type_in_all_cases": "in vivo", "key": {"[1]": {"test_system": "adult unfed cat fleas (Ctenocephalides felis)", "assay": "Ctenocephalides felis oral test", "settings": "48 h, 100 ppm in cattle blood, after 2 days", "method_in_brief": "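About 20 adult unfed fleas feed through parafilm on cattle blood spiked with compound (DMSO stock diluted in blood); blood held at 37° C., fleas at room temperature. Mortality (%) scored after 2 days, 100% meaning all fleas killed.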"}, "[2]": {"test_system": "adult mosquitoes Aedes aegypti strain MONHEIM", "assay": "Aedes aegypti test (AEDSAE surface treatment & contact assay)", "settings": "24 hours after contact, read-out: efficacy (mortality)", "experimental": "Aedes aegypti Test (AEDSAE Surface Treatment & Contact Assay)\n• Solvent: Aceton+2000 ppm rapeseed oil methyl ester (RME)\nIn order to produce a sufficient, active ingredient containing solution it is necessary to solve the test compound in the solvent-mix (acetone at 2 mg/ml/RME 2000 ppm). This solution is pipetted onto a glazed tile and after evaporation of the acetone, adult mosquitoes of the species Aedes aegypti strain MONHEIM are placed onto the dried surface. The exposure time is 30 minutes.\nMortality in percent (%) is determined 24 hours after contact of the insects to the treated surface. 100% mortality means that all tested insects are dead, whereas 0% means that no insect died."}, "[3]": {"test_system": "Rhipicephalus (Boophilus) microplus larvae (strain Parkhurst, resistant against synthetic pyrethroids)", "assay": "Rhipicephalus (Boophilus) microplus in-vitro contact test, larval cattle tick", "settings": "5 μg/cm^2 (=500 g/ha), after 48 hours, read-out: efficacy (larvae dead or moribund)", "method_in_brief": "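Acetone solutions coated onto glass tube walls, 900 ppm giving 5 μg/cm^2; 20–50 larvae per tube after solvent evaporation. Incubated 48 h at 27 °C, 85% relative humidity; efficacy from negative geotaxis, 100% meaning all larvae dead or moribund.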"}}, "data": [{"smiles": "C[C@H](NC(=O)c1cc(Cl)cc(OS(C)(=O)=O)c1)c1ncnn1-c1ccc(C#N)cn1", "note": "[Example I-46]", "values": [{"measurement": "mortality at 100 ppm", "setting": "[1]", "value": 100, "unit": "%"}, {"measurement": "mortality at 4 mg/m2", "setting": "[2]; surface concentration 4 mg/m^2, 30 minutes exposure", "value": "80 to 100", "unit": "%"}, {"measurement": "mortality at 20 mg/m2", "setting": "[2]; surface concentration 20 mg/m^2, 30 minutes exposure", "value": "80 to 100", "unit": "%"}, {"measurement": "pest or weed control at 5 µg/cm2, 5 µg/cm2", "setting": "[3]", "value": 100, "unit": "%"}]}]}
